≈ marks a conversion by molar mass, not a printed value.
Experiments:
[1] = Selectivity index, ratio of HC50 for sheep erythrocytes to MIC for Staphylococcus aureus ATCC 29213; type: toxicity; conditions: read-out: Selectivity Index
[2] = system: Staphylococcus aureus; test: Antibacterial activity against Staphylococcus aureus ATCC 29213 incubated for 16 to 18 hrs CLSI based by microbroth dilution assay; type: functional; conditions: time 16-18 hrs
[3] = system: Staphylococcus aureus; test: Antibacterial activity against methicillin-resistant Staphylococcus aureus clinical isolate M-7 incubated for 16 to 18 hrs CLSI based by microbroth dilution assay; type: functional; conditions: time 16-18 hrs
[4] = system: Staphylococcus aureus; test: Antibacterial activity against methicillin-resistant Staphylococcus aureus clinical isolate M-6 incubated for 16 to 18 hrs CLSI based by microbroth dilution assay; type: functional; conditions: time 16-18 hrs
[5] = system: Staphylococcus aureus; test: Antibacterial activity against methicillin-resistant Staphylococcus aureus clinical isolate M-5 incubated for 16 to 18 hrs CLSI based by microbroth dilution assay; type: functional; conditions: time 16-18 hrs
[6] = Hemolytic activity in sheep erythrocytes incubated for 1 hr by absorbance based assay; type: toxicity, cell-based, Ovis aries, Erythrocyte
[7] = system: Staphylococcus aureus; test: Antibacterial activity against methicillin-resistant Staphylococcus aureus clinical isolate M-2 incubated for 16 to 18 hrs CLSI based by microbroth dilution assay; type: functional; conditions: time 16-18 hrs
[8] = system: Staphylococcus aureus; test: Antibacterial activity against methicillin-resistant Staphylococcus aureus clinical isolate M-9 incubated for 16 to 18 hrs CLSI based by microbroth dilution assay; type: functional; conditions: time 16-18 hrs
[9] = system: Escherichia coli; test: Antibacterial activity against Escherichia coli ATCC 25922 incubated for 16 to 18 hrs CLSI based by microbroth dilution assay; type: functional; conditions: time 16-18 hrs
[10] = system: Staphylococcus aureus; test: Antibacterial activity against methicillin-resistant Staphylococcus aureus clinical isolate M-3 incubated for 16 to 18 hrs CLSI based by microbroth dilution assay; type: functional; conditions: time 16-18 hrs
[11] = system: Staphylococcus aureus; test: Antibacterial activity against methicillin-resistant Staphylococcus aureus clinical isolate M-10 incubated for 16 to 18 hrs CLSI based by microbroth dilution assay; type: functional; conditions: time 16-18 hrs
[12] = system: Staphylococcus aureus; test: Antibacterial activity against methicillin-resistant Staphylococcus aureus clinical isolate M-1 incubated for 16 to 18 hrs CLSI based by microbroth dilution assay; type: functional; conditions: time 16-18 hrs
[13] = system: Staphylococcus aureus; test: Antibacterial activity against methicillin-resistant Staphylococcus aureus clinical isolate M-4 incubated for 16 to 18 hrs CLSI based by microbroth dilution assay; type: functional; conditions: time 16-18 hrs
[14] = system: Staphylococcus aureus; test: Antibacterial activity against methicillin-resistant Staphylococcus aureus clinical isolate M-8 incubated for 16 to 18 hrs CLSI based by microbroth dilution assay; type: functional; conditions: time 16-18 hrs

SMILES | selectivity ratio [1] | MIC [2] | MIC [3] | MIC [4] | MIC [5] | HC50 at 1 h [6] | MIC [7] | MIC [8] | MIC [9] | MIC [10] | MIC [11] | MIC [12] | MIC [13] | MIC [14]
CN(C)c1ccc(-c2nc3c4ccccc4c4ccccc4c3n2CCCC[N+](C)(C)CC(=O)N2CCSCC2)cc1.[Br-] | > 40 | 16 µg/mL | 16 µg/mL | 16 µg/mL | 16 µg/mL | > 640 µg/mL | 16 µg/mL | 16 µg/mL | > 128 µg/mL | 16 µg/mL | 16 µg/mL | 16 µg/mL | 16 µg/mL | 16 µg/mL
CC(C)CN(CC(C)C)C(=O)C[N+](C)(C)CCCCCn1c(-c2ccc(N(C)C)cc2)nc2c3ccccc3c3ccccc3c21.[Br-] | 247 | 1 µg/mL | 1 µg/mL | 1 µg/mL | 2 µg/mL | 247 µg/mL | 1 µg/mL | 1 µg/mL | > 128 µg/mL | 1 µg/mL | 2 µg/mL | 1 µg/mL | 1 µg/mL | 1 µg/mL
CCCCCCNC(=O)C[N+](C)(C)CCCn1c(-c2ccc(N(C)C)cc2)nc2c3ccccc3c3ccccc3c21.[Br-] | > 10 | 64 µg/mL | 64 µg/mL | 128 µg/mL | 64 µg/mL | > 640 µg/mL | 128 µg/mL | 64 µg/mL | > 128 µg/mL | 64 µg/mL | 64 µg/mL | 64 µg/mL | 64 µg/mL | 128 µg/mL
CC(C)CN(CC(C)C)C(=O)C[N+](C)(C)CCCCn1c(-c2ccc(N(C)C)cc2)nc2c3ccccc3c3ccccc3c21.[Br-] | > 79.1 | 2 µg/mL | 1 µg/mL | 1 µg/mL | 2 µg/mL | 158 µg/mL | 2 µg/mL | 2 µg/mL | 64 µg/mL | 1 µg/mL | 2 µg/mL | 2 µg/mL | 1 µg/mL | 2 µg/mL
CC(C)N(C(=O)C[N+](C)(C)CCCCCn1c(-c2ccc(N(C)C)cc2)nc2c3ccccc3c3ccccc3c21)C(C)C.[Br-] | 167 | 4 µg/mL | 4 µg/mL | 4 µg/mL | 4 µg/mL | 688 µg/mL | 4 µg/mL | 4 µg/mL | > 128 µg/mL | 4 µg/mL | 4 µg/mL | 4 µg/mL | 4 µg/mL | 2 µg/mL
CCN(CC)C(=O)C[N+](C)(C)CCCn1c(-c2ccc(N(C)C)cc2)nc2c3ccccc3c3ccccc3c21.[Br-] | > 10 | 64 µg/mL | 64 µg/mL | 128 µg/mL | 64 µg/mL | > 640 µg/mL | 64 µg/mL | 64 µg/mL | > 128 µg/mL | 64 µg/mL | 64 µg/mL | 64 µg/mL | 64 µg/mL | 128 µg/mL
O=C1C(=O)c2ccccc2-c2ccccc21 [9,10-PHENANTHRENEQUINONE] | > 80 | 4 µg/mL (≈ 19.2 µM) | 4 µg/mL (≈ 19.2 µM) | 4 µg/mL (≈ 19.2 µM) | 4 µg/mL (≈ 19.2 µM) | > 320 µg/mL | 4 µg/mL (≈ 19.2 µM) | 8 µg/mL (≈ 38.4 µM) | > 64 µg/mL | 4 µg/mL (≈ 19.2 µM) | 2 µg/mL (≈ 9.61 µM) | 2 µg/mL (≈ 9.61 µM) | 4 µg/mL (≈ 19.2 µM) | 2 µg/mL (≈ 9.61 µM)
CCN(CC)C(=O)C[N+](C)(C)CCCCCn1c(-c2ccc(N(C)C)cc2)nc2c3ccccc3c3ccccc3c21.[Br-] | 67.8 | 16 µg/mL | 8 µg/mL | 8 µg/mL | 8 µg/mL | 1080 µg/mL | 8 µg/mL | 8 µg/mL | 128 µg/mL | 8 µg/mL | 8 µg/mL | 8 µg/mL | 8 µg/mL | 8 µg/mL
